The values that follow are results of earlier work, collected in patent publication US7550593B2, “Process for the preparation of finasteride Form I” (Cipla Limited, priority 2003, dated 2009).

Molecules are shown by their SMILES.

This data set has as its system serum DHT concentration. Particulars: within 24 hours of oral dosing with a 1 mg tablet.

For the compound `CC(C)(C)NC(=O)[C@H]1CC[C@H]2[C@@H]3CC[C@H]4NC(=O)C=C[C@]4(C)[C@H]3CC[C@]12C` [Finasteride, 17β-(N-t-butylcarbamoyl)-4-aza-5-alpha-androst-1-ene-3-one], the “suppression of serum DHT concentration” value is reported as 65%.
